According to US6982348B2, “Aminoethanol derivatives” (Takeda Pharmaceutical Company Limited, priority 2001, dated 2006):
Structures can show the parent of a compound that is named as a salt.

With COC(=O)CCC(=O)O[C@H](c1ccc(F)cc1)[C@H](Cc1cccc(OC(F)(F)C(F)F)c1)NC(=O)c1cccc2c1C=CCCC2 (racemic) (as salt: succinate) [Example 383, (1RS,2SR)-2-[(6,7-dihydro-5H-benzo[a]cyclohepten-1-ylcarbonyl)amino]-1-(4-fluorophenyl)-3-[3-(1,1,2,2-tetrafluoroethoxy)phenyl]propyl methyl succinate] as the compound, how does the melting point read?
Its melting point is 170 to 171 °C.

Which melting point does the source give for O=C(O)CCC(=O)O[C@H](c1ccc(F)cc1)[C@H](Cc1cccc(OC(F)(F)C(F)F)c1)NC(=O)c1cccc2c1C=CCCC2 (racemic) (as salt: succinate) [Example 384, (1RS,2SR)-2-[(6,7-dihydro-5H-benzo[a]cyclohepten-1-ylcarbonyl)amino]-1-(4-fluorophenyl)-3-[3-(1,1,2,2-tetrafluoroethoxy)phenyl]propyl hydrogen succinate] here?
The melting point was 154 to 155 °C.

With O=C(O)CCC(=O)O[C@H](c1ccc(F)cc1)[C@H](Cc1cccc(OC(F)(F)C(F)F)c1)NC(=O)c1ccc(F)c2ccccc12 (racemic) (as salt: succinate) [Example 388, (1RS,2SR)-2-[(4-fluoro-1-naphthoyl)amino]-1-(4-fluorophenyl)-3-[3-(1,1,2,2-tetrafluoroethoxy)phenyl]propyl hydrogen succinate] as the compound, how does the melting point read?
Its melting point is 181 to 182 °C.

Which melting point does the source give for O=C(O)CCC(=O)O[C@H](c1ccc(F)cc1)[C@H](Cc1ccc(C(F)(F)F)cc1)NC(=O)c1cccc2c(Cl)cccc12 (racemic) (as salt: succinate) [Example 394, (1RS,2SR)-2-[(5-chloro-1-naphthoyl)amino]-1-(4-fluorophenyl)-3-[4-(trifluoromethyl)phenyl]propyl hydrogen succinate] here?
The melting point was 228 to 229 °C.

Which melting point does the source give for O=C(O)CCC(=O)O[C@H](c1ccc(F)cc1)[C@H](Cc1ccc2c(c1)OC(F)(F)C(F)(F)O2)NC(=O)c1ccc(F)c2ccccc12 (racemic) (as salt: succinate) [Example 396, (1RS,2SR)-1-(4-fluorophenyl)-2-[(4-fluoro-1-naphthoyl)amino]-3-(2,2,3,3-tetrafluoro-2,3-dihydro-1,4-benzodioxin-6-yl)propyl hydrogen succinate] here?
Its melting point is 196 to 197 °C.

With O=C(NC(Cc1ccc(C(F)(F)F)cc1)C(O)c1ccc(F)cc1)c1cccc2ccccc12 (racemic) [Example 1, N-[2-(4-fluorophenyl)-2-hydroxy-1-[[4-(trifluoromethyl)phenyl]methyl]ethyl]-1-naphthalenecarboxamide] as the compound, how does the melting point read?
Its melting point is 159 to 181 °C.

Which melting point does the source give for Cc1ccc(C(=O)NC(Cc2ccc(C(F)(F)F)cc2)C(O)c2ccc(F)cc2)c2ccccc12 (racemic) [Example 2, N-(2-(4-fluorophenyl)-2-hydroxy-1-((4-(trifluoromethyl)phenyl)methyl)ethyl)-4-methyl-1-naphthalenecarboxamide] here?
The melting point was 149 to 150 °C.

Which melting point does the source give for O=C(CCCc1cccs1)NC(Cc1ccc(C(F)(F)F)cc1)C(O)c1ccc(F)cc1 (racemic) [Example 4, N-(2-(4-fluorophenyl)-2-hydroxy-1-((4-(trifluoromethyl)phenyl)methyl)ethyl)-4-(2-thienyl)butyramide] here?
Its melting point is 123 to 124 °C.

Which melting point does the source give for O=C(NC(Cc1ccc(C(F)(F)F)cc1)C(O)c1ccc(F)cc1)C1CCCC1 (racemic) [Example 5, N-[2-(4-fluorophenyl)-2-hydroxy-1-[[4-(trifluoromethyl)phenyl]methyl]ethyl]cyclopentanecarboxamide] here?
Its melting point is 139 to 155 °C.

With O=C(NC(Cc1ccc(C(F)(F)F)cc1)C(O)c1ccc(F)cc1)c1ccc(F)cc1 (racemic) [Example 6, 4-fluoro-N-[2-(4-fluorophenyl)-2-hydroxy-1-[[4-(trifluoromethyl)phenyl]methyl]ethyl]benzamide] as the compound, how does the melting point read?
Its melting point is 155 to 179 °C.

For COc1ccc(C(=O)NC(Cc2ccc(C(F)(F)F)cc2)C(O)c2ccc(F)cc2)cc1 (racemic) [Example 7, N-[2-(4-fluorophenyl)-2-hydroxy-1-[[4-(trifluoromethyl)phenyl]methyl]ethyl]-4-methoxybenzamide], which melting point is on record?
The melting point was 174 to 176 °C.

For O=C(NC(Cc1ccc(C(F)(F)F)cc1)C(O)c1ccc(F)cc1)C1CCCCC1 (racemic) [Example 8, N-[2-(4-fluorophenyl)-2-hydroxy-1-[[4-(trifluoromethyl)phenyl]methyl]ethyl]cyclohexanecarboxamide], which melting point is on record?
Its melting point is 161 to 178 °C.

Which melting point does the source give for O=C(NC(Cc1ccc(C(F)(F)F)cc1)C(O)c1ccc(F)cc1)c1ccc(Cl)cc1 (racemic) [Example 9, 4-chloro-N-[2-(4-fluorophenyl)-2-hydroxy-1-[[4-(trifluoromethyl)phenyl]methyl]ethyl]benzamide] here?
The melting point was 170 to 180 °C.

For O=C(NC(Cc1ccc(C(F)(F)F)cc1)C(O)c1ccc(F)cc1)c1ccccc1-c1ccccc1 (racemic) [Example 10, N-[2-(4-fluorophenyl)-2-hydroxy-1-[[4-(trifluoromethyl)phenyl]methyl]ethyl]-2-phenylbenzamide], which melting point is on record?
Its melting point is 133 to 134 °C.

With O=C(NC(Cc1ccc(C(F)(F)F)cc1)C(O)c1ccc(F)cc1)c1cccs1 (racemic) [Example 11, N-[2-(4-fluorophenyl)-2-hydroxy-1-[[4-(trifluoromethyl)phenyl]methyl]ethyl]-2-thiophenecarboxamide] as the compound, how does the melting point read?
Its melting point is 135 to 164 °C.

For O=C(NC(Cc1ccc(C(F)(F)F)cc1)C(O)c1ccc(F)cc1)c1ccc(C(F)(F)F)cc1 (racemic) [Example 12, N-[2-(4-fluorophenyl)-2-hydroxy-1-[[4-(trifluoromethyl)phenyl]methyl]ethyl]-4-(trifluoromethyl)benzamide], which melting point is on record?
The melting point was 167 to 169 °C.

Which melting point does the source give for CCCCc1ccc(C(=O)NC(Cc2ccc(C(F)(F)F)cc2)C(O)c2ccc(F)cc2)cc1 (racemic) [Example 13, 4-butyl-N-[2-(4-fluorophenyl)-2-hydroxy-1-[[4-(trifluoromethyl)phenyl]methyl]ethyl]benzamide] here?
Its melting point is 138 to 158 °C.

Which melting point does the source give for O=C(NC(Cc1ccc(C(F)(F)F)cc1)C(O)c1ccc(F)cc1)c1ccc2ccccc2c1 (racemic) [Example 14, N-[2-(4-fluorophenyl)-2-hydroxy-1-[[4-(trifluoromethyl)phenyl]methyl]ethyl]-2-naphthalenecarboxamide] here?
Its melting point is 148 to 150 °C.

For O=C(NC(Cc1ccc(C(F)(F)F)cc1)C(O)c1ccc(F)cc1)C12CC3CC(CC(C3)C1)C2 (racemic) [Example 15, N-[2-(4-fluorophenyl)-2-hydroxy-1-[[4-(trifluoromethyl)phenyl]methyl]ethyl]adamantane-1-carboxamide], which melting point is on record?
Its melting point is 169 to 170 °C.

Which melting point does the source give for CC(C)(C)C(=O)NC(Cc1ccc(C(F)(F)F)cc1)C(O)c1ccc(F)cc1 (racemic) [Example 16, N-[2-(4-fluorophenyl)-2-hydroxy-1-[[4-(trifluoromethyl)phenyl]methyl]ethyl]-2,2-dimethylpropionamide] here?
The melting point was 97 to 99 °C.

For Cc1cc(C)c(C(=O)NC(Cc2ccc(C(F)(F)F)cc2)C(O)c2ccc(F)cc2)c(C)c1 (racemic) [Example 17, N-[2-(4-fluorophenyl)-2-hydroxy-1-[[4-(trifluoromethyl)phenyl]methyl]ethyl]-2,4,6-trimethylbenzamide], which melting point is on record?
The melting point was 141 to 143 °C.

With O=C(NC(Cc1ccc(C(F)(F)F)cc1)C(O)c1ccc(F)cc1)c1ccccc1F (racemic) [Example 18, 2-fluoro-N-[2-(4-fluorophenyl)-2-hydroxy-1-[[4-(trifluoromethyl)phenyl]methyl]ethyl]benzamide] as the compound, how does the melting point read?
The melting point was 115 to 117 °C.

With CC(C)(C)c1ccc(C(=O)NC(Cc2ccc(C(F)(F)F)cc2)C(O)c2ccc(F)cc2)cc1 (racemic) [Example 19, 4-tert-butyl-N-[2-(4-fluorophenyl)-2-hydroxy-1-[[4-(trifluoromethyl)phenyl]methyl]ethyl]benzamide] as the compound, how does the melting point read?
The melting point was 58 °C.

Which melting point does the source give for O=C(NC(Cc1ccc(C(F)(F)F)cc1)C(O)c1ccc(F)cc1)c1ccc(-c2ccccc2)cc1 (racemic) [Example 20, N-[2-(4-fluorophenyl)-2-hydroxy-1-[[4-(trifluoromethyl)phenyl]methyl]ethyl]-4-phenylbenzamide] here?
The melting point was 178 to 185 °C.

Which melting point does the source give for O=C(NC(Cc1ccc(C(F)(F)F)cc1)C(O)c1ccc(F)cc1)c1cccnc1 (racemic) [Example 21, N-[2-(4-fluorophenyl)-2-hydroxy-1-[[4-(trifluoromethyl)phenyl]methyl]ethyl]-3-pyridinecarboxamide] here?
The melting point was 160 to 165 °C.

With CC(C)(C)OC(=O)N[C@H](Cc1ccc(C(F)(F)F)cc1)[C@H](O)c1ccc(F)cc1 (racemic) [Example 24, 1,1-dimethylethyl(1RS,2RS)-2-(4-fluorophenyl)-2-hydroxy-1-((4-(trifluoromethyl)phenyl)methyl)ethylcarbamate] as the compound, how does the melting point read?
Its melting point is 95 to 96 °C.

With CCOc1ccc2ccccc2c1C(=O)N[C@H](Cc1ccc(C(F)(F)F)cc1)[C@H](O)c1ccc(F)cc1 (racemic) [Example 25, 2-(ethyloxy)-N-((1RS,2RS)-2-(4-fluorophenyl)-2-hydroxy-1-((4-(trifluoromethyl)phenyl)methyl)ethyl)-1-naphthalenecarboxamide] as the compound, how does the melting point read?
The melting point was 186 to 187 °C.

For O=C(N[C@H](Cc1ccc(C(F)(F)F)cc1)[C@H](O)c1ccc(F)cc1)c1cccc2ccccc12 (racemic) [Example 26, N-((1RS,2RS)-2-(4-fluorophenyl)-2-hydroxy-1-((4-(trifluoromethyl)phenyl)methyl)ethyl)-1-naphthalenecarboxamide], which melting point is on record?
The melting point was 134 to 135 °C.

Which melting point does the source give for O=C(N[C@H](Cc1ccc(C(F)(F)F)cc1)[C@H](O)c1ccc(F)cc1)c1ccc(C(F)(F)F)cc1 (racemic) [Example 27, N-((1RS,2RS)-2-(4-fluorophenyl)-2-hydroxy-1-((4-(trifluoromethyl)phenyl)methyl)ethyl)-4-(trifluoromethyl)benzamide] here?
The melting point was 162 to 163 °C.

Which melting point does the source give for CC(C)(C)OC(=O)N[C@H](Cc1ccc(C(F)(F)F)cc1)[C@@H](O)c1ccc(F)cc1 (racemic) [Example 28, 1,1-dimethylethyl (1RS,2SR)-2-(4-fluorophenyl)-2-hydroxy-1-((4-(trifluoromethyl)phenyl)methyl)ethylcarbamate] here?
Its melting point is 158 to 159 °C.
